Laboratory results: ChEMBL document CHEMBL5352418, “Molecular networking assisted discovery and combinatorial biosynthesis of new antimicrobial pleuromutilins” (Eur J Med Chem, 2022)
Converted amounts (≈) assume the structure as drawn. The source made the active and inactive calls. The calls are words filed in the database; no cut-off is given here.

Legend:
Staphylococcus aureus = assay: Antibacterial activity against methicillin-resistant Staphylococcus aureus clinical isolate assessed as bacterial growth inhibition by CLSI protocol based broth microdilution method; format: functional
Enterococcus faecalis = assay: Antibacterial activity against vancomycin-resistant Enterococcus faecalis clinical isolate assessed as bacterial growth inhibition by CLSI protocol based broth microdilution method; format: functional
Escherichia coli [1] = assay: Antibacterial activity against Escherichia coli OP50 assessed as bacterial growth inhibition at 20 uM by CLSI protocol based broth microdilution method; format: functional; conditions: read-out: GI
RAW264.7 [2] = assay: Immunostimulatory activity in mouse RAW264.7 cells assessed as increase in cell viability at 1 uM incubated for 48 hrs by CCK-8 assay; format: functional
RAW264.7 [3] = assay: Cytotoxicity activity mouse RAW264.7 cells assessed as reduction in cell viability at upto 100 uM incubated for 48 hrs by CCK-8 assay; format: toxicity, cell-based; conditions: raw264.7, 48 h
RAW264.7 [4] = assay: Immunostimulatory activity in mouse RAW264.7 cells assessed as increase in NO production at 1 uM incubated for 24 hrs by Griess method; format: functional, cell-based
RAW264.7 [5] = assay: Immunostimulatory activity in mouse RAW264.7 cells assessed as increase in TNF-alpha production level at 1 uM incubated for 24 hrs by ELISA; format: functional, cell-based
RAW264.7 [6] = assay: Immunostimulatory activity in mouse RAW264.7 cells assessed as increase in ROS production by measuring fluorescence intensity at 1 uM incubated for 24 hrs by DCFH-DA staining based fluorescence microplate reader assay; format: functional, cell-based
Pseudomonas aeruginosa = assay: Antibacterial activity against Pseudomonas aeruginosa PA01 assessed as bacterial growth inhibition at 20 uM by CLSI protocol based broth microdilution method; format: functional; conditions: read-out: GI
RAW264.7 [7] = assay: Immunostimulatory activity in mouse RAW264.7 cells assessed as increase in IL-6 production level at 1 uM incubated for 24 hrs by ELISA; format: functional, cell-based
Escherichia coli [8] = assay: Antibacterial activity against enteropathogenic Escherichia coli […] assessed as bacterial growth inhibition at 20 uM by CLSI protocol based broth microdilution method; format: functional; conditions: read-out: GI
RAW264.7 [9] = assay: Immunostimulatory activity in mouse RAW264.7 cells assessed as increase in cell viability at 0.078 to 10 uM incubated for 48 hrs by CCK-8 assay; format: functional, cell-based; conditions: dose 0.078-10 µM

Structure (SMILES) | MIC (Staphylococcus aureus) [µM] | MIC (Enterococcus faecalis) [µM] | inhibition of growth at 20 µM (Escherichia coli [1]) [%] | Activity (RAW264.7 [2]) | Activity (RAW264.7 [3]) | Activity (RAW264.7 [4]) | Activity (RAW264.7 [5]) | Activity (RAW264.7 [6]) | inhibition of growth at 20 µM (Pseudomonas aeruginosa) [%] | Activity (RAW264.7 [7]) | inhibition of growth at 20 µM (Escherichia coli [8]) [%] | Activity (RAW264.7 [9])
C=C[C@]1(C)C[C@@H](OC(=O)CO[C@H]2O[C@H](CO)[C@@H](O)[C@H](O)[C@H]2O)[C@@]2(C)C3C(=O)CCC3(CC[C@H]2C)[C@@H](C)[C@@H]1O (single isomer, unassigned) | > 20 | > 20 | 21 | inactive | Non-Toxic | Active | Active |  |  |  |  | 
C[C@@H]1CC[C@@]23CCC(=O)C2[C@]1(C)[C@H](OC(=O)CO)C[C@@](C)([C@H](O)CO)[C@@H](O)[C@@H]3C (stereo partly drawn) | > 20 | 20 (≈ 8.25 µg/mL) | 50 | inactive | Non-Toxic | Active | Active |  |  |  |  | 
C=C[C@]1(C)C[C@@H](O)[C@@]2(C)C3C(=O)CC[C@@]3(CC[C@H]2C)[C@@H](C)[C@@H]1O (stereo partly drawn) | 6.25 (≈ 2 µg/mL) | 5 (≈ 1.6 µg/mL) |  | inactive | Non-Toxic |  |  | Active |  |  |  | 
C=C[C@]1(C)C[C@@H](OC(=O)CO)[C@@]2(C)C3=CC(=O)C[C@@]3(CC[C@H]2C)[C@@H](C)[C@@H]1O | > 20 | 5 (≈ 1.88 µg/mL) |  | inactive | Non-Toxic |  | Active |  |  |  |  | 
C=C[C@]1(C)C[C@@H](OC(C)=O)[C@@]2(C)C3[C@H](O)CC[C@@]3(CC[C@H]2C)[C@@H](C)[C@@H]1O (stereo partly drawn) | 6.25 (≈ 2.28 µg/mL) | 0.625 (≈ 0.228 µg/mL) | 20 | inactive | Non-Toxic |  | Active |  | 18 |  |  | 
C=C[C@]1(C)C[C@@H](O)[C@@]2(C)C3CCC[C@@]3(CC[C@H]2C)[C@@H](C)C1 (stereo partly drawn) | 12.5 (≈ 3.63 µg/mL) | 20 (≈ 5.81 µg/mL) |  | inactive | Non-Toxic |  | Active |  |  |  |  | 
C=C[C@]1(C)C[C@@H](OC(C)=O)[C@@]2(C)C3=CC(=O)C[C@@]3([C@H](O)C[C@H]2C)[C@@H](C)[C@@H]1O | > 20 | 5 (≈ 1.88 µg/mL) |  | inactive | Non-Toxic |  | Active |  |  | Active |  | 
C=C[C@]1(C)C[C@@H](O)[C@@]2(C)C3[C@H](O)CC[C@@]3(CC[C@H]2C)[C@@H](C)[C@@H]1O (stereo partly drawn) | 12.5 (≈ 4.03 µg/mL) | 20 (≈ 6.45 µg/mL) |  | inactive | Non-Toxic |  |  |  |  |  |  | 
C[C@@H]1CC[C@@]23CCC(=O)C2[C@]1(C)[C@H](OC(=O)CO)C[C@@]1(C)[C@H](O)CO[C@H]1[C@@H]3C (stereo partly drawn) | > 20 | 20 (≈ 7.89 µg/mL) | 34 | inactive | Non-Toxic | Active | Active |  |  |  |  | 
C=C[C@]1(C)C[C@@H](O)[C@@]2(C)C3=CC(=O)C[C@@]3(CC[C@H]2C)[C@@H](C)[C@@H]1O | > 20 | > 20 |  | inactive | Non-Toxic |  | Active |  |  | Active |  | 
C=C[C@@]1(C)C[C@H](C)[C@]23CCC(=O)C2[C@@](C)([C@H](C)CC3)[C@H](OC(C)=O)C1 (stereo partly drawn) | 12.5 (≈ 4.33 µg/mL) | 1.25 (≈ 0.433 µg/mL) |  | inactive | Non-Toxic |  |  |  |  |  |  | 
C=C[C@]1(C)C[C@@H](O)[C@@]2(C)C3[C@H](O)CC[C@@]3(CC[C@H]2C)[C@@H](C)C1 (stereo partly drawn) | 12.5 (≈ 3.83 µg/mL) | 20 (≈ 6.13 µg/mL) |  | inactive | Non-Toxic |  |  |  |  |  |  | 
C=C[C@]1(C)C[C@@H](OC(=O)CO)[C@@]2(C)C3C(=O)[C@H](O)CC3(CC[C@H]2C)[C@@H](C)[C@@H]1O (single isomer, unassigned) | 3.12 (≈ 1.23 µg/mL) | 1.25 (≈ 0.493 µg/mL) | 70 | inactive | Non-Toxic | Active | Active |  |  | Active | 52 | 
C=C[C@]1(C)C[C@@H](OC(=O)CO)[C@@]2(C)C3C(=O)CC[C@@]3(CC[C@H]2C)[C@@H](C)[C@@H]1O (stereo partly drawn) | 0.09 (≈ 0.0341 µg/mL) | 0.31 (≈ 0.117 µg/mL) | 71 | 60% | Non-Toxic |  |  |  | 40 |  |  | Dose-Dependent Effect
C=C[C@]1(C)C[C@@H](OC(C)=O)[C@@]2(C)C3C(=O)CC[C@@]3(CC[C@H]2C)[C@@H](C)[C@@H]1O (stereo partly drawn) | 0.39 (≈ 0.141 µg/mL) | 2.5 (≈ 0.906 µg/mL) | 61 | 60% | Non-Toxic |  |  | Active | 51 |  |  | Dose-Dependent Effect
CC(=O)OC[C@@H](O)[C@]1(C)C[C@@H](OC(=O)CO)[C@@]2(C)C3C(=O)CC[C@@]3(CC[C@H]2C)[C@@H](C)[C@@H]1O (stereo partly drawn) | > 20 | > 20 | 21 | inactive | Non-Toxic |  | Active |  |  | Active |  | 
C=C[C@@]1(C)C[C@H](C)[C@]23CC[C@@H](O)C2[C@@](C)([C@H](C)CC3)[C@H](OC(C)=O)C1 (stereo partly drawn) | > 20 | 2.5 (≈ 0.871 µg/mL) |  | inactive | Non-Toxic |  | Active |  |  |  |  | 
